Tests used:
SIRT1 = target: T1, SIRT1 (Homo sapiens, UniProt Q96EB6); design: method as in PMID 25395356; conditions: reported earlier; cited from earlier work
T1 sequence (Q96EB6 1-747): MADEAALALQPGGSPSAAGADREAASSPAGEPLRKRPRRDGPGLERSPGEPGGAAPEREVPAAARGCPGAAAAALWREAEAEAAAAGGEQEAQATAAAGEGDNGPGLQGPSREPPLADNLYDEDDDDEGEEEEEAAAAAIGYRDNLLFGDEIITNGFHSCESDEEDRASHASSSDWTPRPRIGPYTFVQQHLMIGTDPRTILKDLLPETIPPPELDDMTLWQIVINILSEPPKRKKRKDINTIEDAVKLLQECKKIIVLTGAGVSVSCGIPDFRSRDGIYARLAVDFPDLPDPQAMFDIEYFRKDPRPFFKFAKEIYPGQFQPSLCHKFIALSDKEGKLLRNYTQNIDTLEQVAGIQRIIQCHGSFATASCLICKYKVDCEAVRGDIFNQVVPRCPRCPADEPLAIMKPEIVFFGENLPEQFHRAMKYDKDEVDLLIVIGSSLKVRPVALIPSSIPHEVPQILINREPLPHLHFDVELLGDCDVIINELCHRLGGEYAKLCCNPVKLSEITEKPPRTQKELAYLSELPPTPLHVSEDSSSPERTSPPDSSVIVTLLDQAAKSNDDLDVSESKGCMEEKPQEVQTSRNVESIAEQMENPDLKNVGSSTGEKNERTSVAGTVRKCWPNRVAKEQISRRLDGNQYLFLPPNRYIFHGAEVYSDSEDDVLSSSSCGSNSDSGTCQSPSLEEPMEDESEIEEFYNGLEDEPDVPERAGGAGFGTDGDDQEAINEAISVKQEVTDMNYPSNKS

SIRT3 = target: T2, SIRT3 (Homo sapiens, UniProt Q9NTG7); design: method as in PMID 25395356; conditions: reported earlier; cited from earlier work
T2 sequence (Q9NTG7 1-399): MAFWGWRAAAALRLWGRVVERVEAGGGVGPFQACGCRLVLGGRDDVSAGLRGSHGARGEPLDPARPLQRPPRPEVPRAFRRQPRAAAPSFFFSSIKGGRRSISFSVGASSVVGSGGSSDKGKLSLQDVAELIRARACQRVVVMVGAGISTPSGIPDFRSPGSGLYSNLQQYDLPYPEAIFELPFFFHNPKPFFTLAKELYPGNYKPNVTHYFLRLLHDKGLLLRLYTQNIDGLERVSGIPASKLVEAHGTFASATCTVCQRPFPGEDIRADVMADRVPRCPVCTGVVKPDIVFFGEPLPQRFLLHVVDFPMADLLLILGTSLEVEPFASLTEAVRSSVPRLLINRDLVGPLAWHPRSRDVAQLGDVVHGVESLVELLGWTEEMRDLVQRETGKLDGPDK

SIRT5 = tested on: SIRT5; design: method as in PMID 25395356; conditions: cited from earlier work
[1] = tested on: Parkinsonian neuronal cell death model; design: method as in PMID 25395356; conditions: cited from earlier work
[2] = tested on: acetylated (lysine-40) α-tubulin in MCF-7 cells; assay: Tubulin acetylation assay, Western blot in MCF-7 cells with TSA; conditions: 0-50 μM for 24 h with 50 nM TSA, N = 3

SMILES: COc1ccc2ccccc2c1Cn1cnc2sc3c(c2c1=O)CCC(NCc1cccnc1)C3 (stereo not drawn) [19a]
- SIRT2/SIRT1 selectivity (SIRT1): >100
- SIRT2/SIRT3 selectivity (SIRT3): >100
- IC50 (SIRT5; Figure 1): > 100 µM
- selectivity for SIRT2 in comparison to SIRT5 (SIRT5; previous study): more than 100
- neuroprotection [1]: showed neuroprotection
- effect on α-tubulin acetylation level [2]: showed increased acetylated α-tubulin level at 20 μM and decreased level at 50 μM

From article PMC6014686, “Thienopyrimidinone Based Sirtuin-2 (SIRT2)-Selective Inhibitors Bind in the Ligand Induced Selectivity Pocket” (Journal of Medicinal Chemistry, 2017)
